In patent EP1945226B1, “DRUG COMBINATION WITH ANALGESIC, ANTI-INFLAMMATORY AND DECONGESTIVE ACTIVITY” (Voicu, A. Victor, priority 2005, dated 2006):

System: edema induced by carrageenan
Assay: experimental inflammation model with carrageenan at the rats' posterior paws
Type: in vivo, Wistar rats
Conditions: rat, administered independently
Description: The anti-inflammatory effect was found via the experimental inflammation model with carrageenan at the rats' posterior paws. For the experimental research, we used Wistar rats with 120±10g weight, in groups of 9 animals.
1% carrageenan saline solution was administered by subcutaneous injection (0.1 mL volume) In the posterior paw.
The anti-inflammatory combination was administered 1 hour before carrageenan. The posterior paws' dimensions were measured before and 3 hours after carrageenan solution injection. The contra lateral paw was used as reference. The following combination was used for the experiments:
This (combination, formulated as) suspension was administered orally (gavage), in dosage of 0.2 mL/100 g rat body weight.
Acetylsalicylic acid was administered independently, in doses of 250 mg/kg body weight, equivalent to the quantity used in the combination. Chlorpheniramine was also (independently) administered by oral route, as reference, in doses equivalent to 6 mg/kg body weight.

## CC(=O)Oc1ccccc1C(=O)O [acetylsalicylic acid]
250 mg/kg body weight
  anti-inflammatory effect (reduces pow edema), mean value: approximately 22%

## CN(C)CCC(c1ccc(Cl)cc1)c1ccccn1 (centres unmarked) [chlorpheniramine]
Oral route, 6 mg/kg body weight
  anti-inflammatory effect: no anti-inflammatory effect
